From patent US8828988B2 (Tetraphase Pharmaceuticals, Inc., priority 2009, dated 2014)
≈ marks a conversion by molar mass, not a printed value. Where two headings read alike, the source gives them in different places.

What was measured:
[1] = test system: Staphylococcus aureus SA101, ATCC 29213, MSSA; assay: MIC assay, SA101; assay type: cell-based
[2] = test system: Staphylococcus aureus SA161, HA-MRSA, tetracycline-resistant, tet(M); assay: MIC assay, SA161; assay type: cell-based
[3] = test system: Staphylococcus aureus SA158, tetracycline-resistant tet(K); assay: MIC assay, SA158; assay type: cell-based
[4] = test system: Enterococcus faecalis EF103, ATCC 29212; assay: MIC assay, EF103; assay type: cell-based; details: for MIC: Enterococcus faecalis, ATCC29212, Table 8, read-out: MIC E. faecalis ATCC 29212
[5] = test system: Enterococcus faecalis EF159, tetracycline-resistant, tet(M); assay: MIC assay, EF159; assay type: cell-based
[6] = test system: Streptococcus pneumoniae SP106, ATCC 49619; assay: MIC assay, SP106; assay type: cell-based
[7] = test system: Streptococcus pneumoniae SP160, tetracycline-resistant, tet(M); assay: MIC assay, SP160; assay type: cell-based
[8] = test system: Escherichia coli EC107, ATCC 25922; assay: MIC assay, EC107; assay type: cell-based
[9] = test system: Escherichia coli EC155, tetracycline-resistant, tet(A); assay: MIC assay, EC155; assay type: cell-based
[10] = test system: E. faecalis clinical isolates; assay: MIC50, MIC90 and MIC range, panel of clinical isolates (Example 20); assay type: cell-based; details: 24 isolates, in µg/mL
Protocol: (§1) The assays were run as follows.
(§2) Both values, as well as the MIC range (the lowest and highest MIC value observed for a collection of organisms), were determined for the isolates listed in Table 3.

[11] = test system: S. aureus clinical isolates; assay: as above; assay type: cell-based; details: MRSA, 30 isolates; in µg/mL
Protocol: as §1, §2

[12] = test system: S. pneumoniae clinical isolates; assay: as above; assay type: cell-based; details: 19 isolates, in µg/mL
Protocol: as §1, §2

[13] = test system: E. coli DH10B(pBAD-tetK), expressing tet(K); assay: MIC against recombinant E. coli expressing tet(K); assay type: cell-based; details: for MIC: Escherichia coli
From the text: (§3) Constructs were transformed into E. coli DH10B for expression. Recombinant strains were pre-induced under optimized conditions with L-arabinose prior to use as inocula in CLSI standardized MIC assays.

[14] = test system: E. coli DH10B(pBAD-tetM), expressing tet(M); assay: MIC against recombinant E. coli expressing tet(M); assay type: cell-based; details: for MIC: Escherichia coli
From the text: as §3

[15] = test system: E. coli S30 extract system, coupled in vitro transcription/translation, firefly luciferase readout; assay: In vitro transcription/translation (TnT) assay; assay type: biochemical; details: for IC50, in vitro transcription/translation system: E. coli S30 extract, luciferase readout
[16] = test system: tet(K) strains of S. aureus; assay: MIC, CLSI methodology, recent clinical isolates (Example 21); assay type: cell-based; details: Staphylococcus aureus, read-out: MIC against tet(K) strains of S. aureus
Protocol: as §1
(§4) The antibacterial activities of Compounds MIC values were determined according to CLSI methodology. Recent clinical isolates were obtained from Eurofins-Medinet. Antibiotics were obtained from standard commercial sources.

[17] = test system: tet(M) and tet(S) strains of E. faecalis; assay: as above; assay type: cell-based; details: Enterococcus faecalis, read-out: MIC against tet(M) and tet(S) strains of E. faecalis
Protocol: as §1, §4

[18] = test system: tet(M) strains of S. aureus; assay: as above; assay type: cell-based; details: Staphylococcus aureus, read-out: MIC against tet(M) strains of S. aureus
Protocol: as §1, §4

[19] = test system: tet(M) strains of S. pneumoniae; assay: as above; assay type: cell-based; details: Streptococcus pneumoniae, read-out: MIC against tet(M) strains of S. pneumoniae
Protocol: as §1, §4

[20] = test system: Staphylococcus aureus SA100, ATCC 13709, MSSA, Smith strain; assay: MIC assay, SA100; assay type: cell-based
[21] = test system: Acinetobacter baumannii AB110, ATCC 19606; assay: MIC assay, AB110; assay type: cell-based; details: ATCC19606, Table 9, read-out: MIC A.baum AB110
[22] = test system: Pseudomonas aeruginosa PA111, ATCC 27853; assay: MIC assay, PA111; assay type: cell-based; details: ATCC27853, Table 9, read-out: MIC P. aeruginosa ATCC 27853
[23] = test system: Enterobacter cloacae EC108, ATCC 13047; assay: MIC assay, EC108; assay type: cell-based; details: ATCC13047, Table 9, read-out: MIC Enterobacter cloaceae ATCC 13047
[24] = test system: Klebsiella pneumoniae KP109, ATCC 13883; assay: MIC assay, KP109; assay type: cell-based; details: ATCC13883, Table 9, read-out: MIC Klebsiella pneum ATCC 13883
[25] = test system: Klebsiella pneumoniae KP153, tetracycline-resistant, tet(A), MDR, ESBL+; assay: MIC assay, KP153; assay type: cell-based; details: Table 9, read-out: MIC Klebsiella pneum KP153 (tet)A
in vivo = details: Sprague-Dawley, rat
[26] = test system: S. pneumoniae isolates (Eurofins-Medinet, recent clinical isolates); assay: MIC50 and MIC90 analysis (Example 22)
Protocol: (§5) Frozen bacterial strains were thawed and subcultured onto Mueller Hinton Broth (MHB) or other appropriate media (Streptococcus requires blood and Haemophilus requires hemin and NAD). Following incubation overnight, the strains were subcultured onto Mueller Hinton Agar and again incubated overnight. […] Isolated colonies were selected to prepare a starting inoculum equivalent to a 0.5 McFarland standard. […] Antibiotics (stored frozen, thawed and used within 3 hours of thawing) and compounds were further diluted to the desired working concentrations.
(§6) The assays were run as follows. Fifty μL of MHB was added to wells 2-12 of a 96-well plate. One hundred μL of appropriately diluted antibiotic or compound was added to well 1. Fifty μL of antibiotics or compound was removed from well 1 and added to well 2 and the contents of well 2 mixed by pipetting up and down five times. Fifty μL of the mixture in well 2 was removed and added to well 3 and mixed as above. Serial dilutions were continued in the same manner through well 12. Fifty μL was removed from well 12 so that all contained 50 μL. Fifty μL of the working inoculum was then added to all test wells. A growth control well was prepared by adding 50 μL of working inoculum and 50 μL of MHB to an empty well. The plates were then incubated at 37° C. overnight, removed from the incubator and each well was read on a plate reading mirror. The lowest concentration (MIC) of test compound that inhibited the growth of the bacteria was recorded.
(§7) MIC, MIC50 and MIC90 values were determined according to CLSI methodology. S. pneumoniae and H. influenzae isolates were obtained from Eurofins-Medinet and are recent clinical isolates. S. aureus strains were collected from various geographical sources.

[27] = test system: H. influenzae isolates (Eurofins-Medinet, recent clinical isolates); assay: MIC50 and MIC90 analysis (Example 22)
Protocol: as §5, §6, §7

[28] = test system: S. aureus strains collected from various geographical sources; assay: MIC50 and MIC90 analysis (Example 22)
Protocol: as §5, §6, §7

[29] = Pharmacokinetic analysis in Sprague-Dawley rats
E. coli ATCC 25922 = assay: Mouse systemic infection model, E. coli septicemia; details: survival after 48 hours
[30] = test system: S. aureus ATCC 13709 (Smith); assay: Mouse systemic infection model, S. aureus septicemia; details: survival after 48 hours
[31] = Table 8, read-out: MIC S. aureus ATCC 29213
[32] = Table 8, read-out: MIC S. aureus MRSA, tetM
[33] = Table 8, read-out: MIC S. aureus tetK
[34] = Table 8, read-out: MIC E. faecalis tetM
[35] = ATCC49619, Table 8, read-out: MIC S. pneumoniae ATCC 49619
[36] = Table 8, read-out: MIC S. pneumoniae tetM
[37] = ATCC25922, Table 8, read-out: MIC E. coli ATCC 25922
[38] = Table 8, read-out: MIC E. coli tetA
[39] = after IV dosing, single dose 1 mg/kg

SMILES: CN(C)[C@@H]1C(O)=C(C(N)=O)C(=O)[C@@]2(O)C(O)=C3C(=O)c4c(O)c(NCC(C)(C)CN5CCCC5)nc(Cl)c4C[C@H]3C[C@@H]12 [Compound 108]
- MIC [1, 31]: 0.25 µg/mL (≈ 0.414 µM)
- MIC [2, 32]: 2 µg/mL (≈ 3.31 µM)
- MIC [3, 33]: 0.13 µg/mL (≈ 0.215 µM)
- MIC [4]: 0.5 µg/mL (≈ 0.828 µM)
- MIC [5, 34]: 2 µg/mL (≈ 3.31 µM)
- MIC [6, 35]: 0.031 µg/mL (≈ 0.0513 µM)
- MIC [7, 36]: 0.25 µg/mL (≈ 0.414 µM)
- MIC [8, 37]: 2 µg/mL (≈ 3.31 µM)
- MIC [9, 38]: 8 µg/mL (≈ 13.2 µM)
- MIC Range [10]: 0.063-4
- MIC Range [11]: 0.5-8
- MIC Range [12]: <=0.016-0.13
- MIC ([13]; read-out: MIC, TetK Induced): 2 µg/mL
- MIC ([13]; read-out: MIC, Uninduced): 4 µg/mL
- MIC ratio, TetK induced to uninduced ([13]; ratio of TetK induced to uninduced MIC): 0.5
- Effect of expression of (tet)K on activity ([13]; result in words): unaffected
- MIC ([14]; read-out: MIC, TetM induced): 2 µg/mL
- MIC ([14]; read-out: MIC, Uninduced): 2 µg/mL
- Ratio (TetM induced / Uninduced) ([14]; ratio of MICs): 1
- Effect of expression of (tet)M on activity ([14]; result in words): minimally affected
- TnT IC50 [15]: 0.6 µg/mL
- IC50, in vitro transcription/translation system [15]: 0.62 µg/mL (≈ 1.03 µM)
- MIC [16]: ≤ 1 µg/mL
- MIC [17]: ≤ 4 µg/mL
- MIC [18]: ≤ 8 µg/mL
- MIC [19]: ≤ 0.25 µg/mL

SMILES: CN(C)c1ncc(O)c2c1C[C@H]1C[C@H]3[C@H](N(C)C)C(O)=C(C(N)=O)C(=O)[C@@]3(O)C(O)=C1C2=O [Compound 109]
- MIC [1, 31]: 0.031 µg/mL (≈ 0.0676 µM)
- MIC ([1]; Table 9, read-out: MIC S. aureus ATCC 29213): 0.03 µg/mL (≈ 0.0654 µM)
- MIC ([20]; Table 9, read-out: MIC S. aureus ATCC 13709): 0.13 µg/mL (≈ 0.284 µM)
- MIC ([20]; Table 12, read-out: MIC S. aureus ATCC 13709): 0.25 µg/mL (≈ 0.545 µM)
- MIC [2, 32]: 16 µg/mL (≈ 34.9 µM)
- MIC ([2]; Table 9, read-out: MIC MRSA (tet)M SA161): 32 µg/mL (≈ 69.8 µM)
- MIC [3, 33]: 2 µg/mL (≈ 4.36 µM)
- MIC ([3]; Table 9, read-out: MIC S. aureus SA158 (tet)K): 1 µg/mL (≈ 2.18 µM)
- MIC [4]: 1 µg/mL (≈ 2.18 µM)
- MIC E. faecalis ATCC 29212 ([4]; Table 9): 1 µg/mL (≈ 2.18 µM)
- MIC [5, 34]: 32 µg/mL (≈ 69.8 µM)
- MIC ([5]; Table 9, read-out: MIC E. faecalis EF159 (tet)M): 32 µg/mL (≈ 69.8 µM)
- MIC [6, 35]: 0.031 µg/mL (≈ 0.0676 µM)
- MIC ([6]; ATCC49619, Table 9, read-out: MIC S. pneum ATCC 49619): 0.03 µg/mL (≈ 0.0654 µM)
- MIC [7, 36]: 8 µg/mL (≈ 17.4 µM)
- MIC ([7]; Table 9, read-out: MIC S. pneum SP160 (tet)M): 8 µg/mL (≈ 17.4 µM)
- MIC [8, 37]: 0.13 µg/mL (≈ 0.284 µM)
- MIC ([8]; ATCC25922, Table 9, read-out: MIC E. coli ATCC 25922): 0.13 µg/mL (≈ 0.284 µM)
- MIC ([8]; ATCC25922, Table 12, read-out: MIC E. coli ATCC 25922): 0.13 µg/mL (≈ 0.284 µM)
- MIC [9, 38]: > 32 µg/mL
- MIC ([9]; Table 9, read-out: MIC E. coli EC155 (tet)A): > 32 µg/mL
- MIC [21]: 0.5 µg/mL (≈ 1.09 µM)
- MIC [22]: 8 µg/mL (≈ 17.4 µM)
- MIC [23]: 1 µg/mL (≈ 2.18 µM)
- MIC [24]: 0.5 µg/mL (≈ 1.09 µM)
- MIC [25]: > 32 µg/mL
- TnT IC50 [15]: 0.76 µg/mL
- IC50, in vitro transcription/translation system [15]: sub-μg/ml
- E. coli TnT ([15]; Table 8): 0.9 µg/mL
- AUC(0-t) (in vivo; iv, 1 mg/kg): 1090 ng·h/mL
- Cmax (in vivo; iv, 1 mg/kg): 603 ng/mL
- Tmax (in vivo; iv, 1 mg/kg): 0.08 h
- half-life (in vivo; iv, 1 mg/kg): 3 h
- bioavailability (in vivo; oral, 10 mg/kg): 13%
- AUC(0-t) (in vivo; po, 10 mg/kg): 1250 ng·h/mL
- Cmax (in vivo; po, 10 mg/kg): 192 ng/mL
- Tmax (in vivo; po, 10 mg/kg): 1.4 h
- half-life (in vivo; po, 10 mg/kg): 4.51 h
- MIC Range ([26]; S. pneumoniae (n = 20)): ≦0.016-8 μg/ml
- MIC50 ([26]; Streptococcus pneumoniae): 2 µg/mL (≈ 4.36 µM)
- MIC90 ([26]; Streptococcus pneumoniae): 4 µg/mL (≈ 8.72 µM)
- MIC Range ([27]; H. influenzae (n = 12)): 0.063 to 4 µg/mL
- MIC50 ([27]; Haemophilus influenzae): 0.5 µg/mL (≈ 1.09 µM)
- MIC90 ([27]; Haemophilus influenzae): 2 µg/mL (≈ 4.36 µM)
- MIC Range ([28]; S. aureus (n = 20)): ≦0.016-1 μg/ml
- MIC50 ([28]; Staphylococcus aureus): ≤ 0.016 µg/mL
- MIC90 ([28]; Staphylococcus aureus): ≤ 0.016 µg/mL
- Clobs ([29]; IV, single dose 1 mg/kg, mean): 15.311 mL/min/kg
- Vzobs ([29]; IV, single dose 1 mg/kg, mean): 4.17697 L/kg
- half-life ([29]; IV, single dose 1 mg/kg, mean): 3.14 h
- AUC [29, 39]: 1087 ng·h/mL
- Cl [29, 39]: 15.3 mL/min/kg
- Vz [29, 39]: 4.177 L/kg
- % F. ([29]; oral bioavailability, PO 10 mg/kg vs IV 1 mg/kg): 12.74%
- PD50 in the mouse septicemia model against E. coli (E. coli ATCC 25922; CD-1 mice, IP infection, treatment one hour post-challenge): 4.3 mg/kg
- PD50 (E. coli ATCC 25922; mouse septicemia, E. coli ATCC 25922, treatment one hour post-challenge): 4.3 mg/kg
- PD50 in the mouse septicemia model against S. aureus ([30]; CD-1 mice, IP infection, intravenous treatment one hour post-challenge): < 0.3 mg/kg
- PD50 ([30]; mouse septicemia, S. aureus ATCC 13709, intravenous treatment one hour post-challenge): <0.30 mg/kg
